Data taken from patent US20060183922A1, “CB2-selective cannabinoid derivatives” (priority 2005, published 2006).
“Also recorded” adds a separate entry of the source.

How the values were obtained:
[1] = biological target: T1, human CB2 receptor (transfected human embryonic kidney 293 cells) (Homo sapiens, UniProt P34972); assay: CB2 receptor binding assay, [3H]CP-55,940 displacement; conditions: for Fold selectivity for CB2 over CB1: ratio of CB1 to CB2 affinity
T1 construct: expressed in transfected cells
Description: 2. CB2 Assay. Human embryonic kidney 293 cells were maintained in Dulbecco's modified Eagle's medium (DMEM) with 10% fetal clone II (HyClone, Logan Utah) and 5% CO2 at 37° C. in a Forma incubator. Cell lines were created by transfection of CB2pcDNA3 into 293 cells by the Lipofectamine reagent (Life Technologies, Gaithersburg, Md.). The human CB2 cDNA was a gift. Stable transformants were selected in growth medium containing geneticin (1 mg/mL, reagent, Life Technologies, Gaithersburg, Md.). Colonies of about 500 cells were picked (about 2 weeks post transfection) and allowed to expand, then tested for expression of receptor mRNA by northern blot analysis. Cell lines containing moderate to high levels of receptor mRNA were tested for receptor binding properties. Transfected cell lines were maintained in DMEM with 10% fetal clone II plus 0.3-0.5 mg/mL geneticin and 5% CO2 at 37° C. in a Forma incubator.
The current assay is a modification of Compton et al. (Compton, D. R.; Rice, K. C.; De Costa, B. R.; Razdan, R. K.; Melvin, L. S.; Johnson, M. R.; Martin, B. R. J. Pharmacol Exp. Ther. 1993, 265, 218.) Cells were harvested in phosphate-buffered saline containing 1 mM EDTA and centrifuged at 500 g. The cell pellet was homogenized in 10 mL of solution A (50 mM Tris-HCl, 320 mM sucrose, 2 mM EDTA, 5 mM MgCl2, pH 7.4). The homogenate was centrifuged at 1,600×g (10 min), the supernatant saved, and the pellet washed three times in solution A with subsequent centrifugation. The combined supernatants were centrifuged at 100,000×g (60 min). The (P2 membrane) pellet was resuspended in 3 mL of buffer B (50 mM Tris-HCl, 1 mM EDTA, 3 mM MgCl2, pH 7.4) to yield a protein concentration of approximately 1 mg/mL. The tissue preparation was divided into equal aliquots, frozen on dry ice, and stored at −70° C. Binding was initiated by the addition of 40-50 μg membrane protein to silanized tubes containing [^3H]CP-55,940 (102.9 Ci/mmol) and a sufficient volume of buffer C (50 mM Tris-HCl, 1 mM EDTA, 3 mM MgCl2, and 5 mg/mL fatty acid free BSA, pH 7.4) to bring the total volume to 0.5 mL. The addition of 1 μM unlabelled CP-55,940 was used to assess nonspecific binding. Following incubation (30° C. for 1 hour), binding was terminated by the addition of 2 mL of ice cold buffer D (50 mM Tris-HCl, pH 7.4, plus 1 mg/mL BSA) and rapid vacuum filtration through Whatman GF/C filters (pretreated with polyethyleneimine (0.1%) for at least 2 hours). Tubes were rinsed with 2 mL of ice cold buffer D, which was also filtered, and the filters subsequently rinsed twice with 4 mL of ice cold buffer D. Before radioactivity was quantitated by liquid scintillation spectrometry, filters were shaken for 1 hr in 5 mL of scintillation fluid.
(§1) CP-55,940 and all cannabinoid analogs were prepared by suspension in assay buffer from a 1 mg/mL ethanolic stock without evaporation of the ethanol (final concentration of no more than 0.4%). Competition assays were conducted with 1 nM [^3H]-CP55,940 and 6 concentrations (0.1 nM to 10 μM displacing ligands). Displacement IC50 values were originally determined by unweighted least-squares linear regression of log concentration-percent displacement data and then converted to Ki values using the method of Cheng and Prusoff(Cheng, Y. C.; Prusoff, W. H. Biochem. Pharmacol. 1973, 22, 3099.)

CB1 receptor = biological target: T2, CB1 receptor (Rattus norvegicus, UniProt P20272); assay: CB1 receptor binding assay, [3H]CP-55,940 displacement, whole brain P2 membranes
T2 construct: except whole brain (rather than cortex only) was used; from tissue; host or cells: whole brain P2 membranes
Description: 1. CB1 Assay. [^3H] […] Displacement curves were generated by incubating drugs with 1 nM of [^3H] CP-55,940. The assays were performed in triplicate, and the results represent the combined data from three individual experiments.
as §1, with “Competition assays were conducted with 1 nM [^3H]-CP55,940 and 6 concentrations (0.1 nM to 10 μM displacing ligands).” left out

[2] = system: formalin model of inflammatory pain; assay: Formalin model of inflammatory pain; format: in vivo; conditions: male ICR mice
Description: One of the above CB2 selective agonists was chosen for testing in the formalin model of inflammatory pain in mice. Subjects consisted of male ICR mice (Harlan Labs) weighing between 20-25 g. The formalin test was carried out in an open Plexiglas cage, with a mirror placed under the floor to allow an unobstructed view of the paws. Mice were allowed to acclimate for 15 min in the test cage before formalin injection. Each animal was injected with 20 μl of 2.5% formalin in the intraplantar region of the right hindpaw. Mice were then observed 0-5 min (Phase 1) and 20-45 min (Phase 2) post-formalin, and the amount of time spent licking the injected paw was recorded. The drug was injected i.p. 30 min before formalin injection.

CB2 receptor = CB2 receptor (Homo sapiens, UniProt P34972); conditions: read-out: Ki for the CB2 receptor; Huffman et al., Biorg. Med. Chem. 1999; cited from earlier work
CB2 receptor, sequence (P34972 whole entry): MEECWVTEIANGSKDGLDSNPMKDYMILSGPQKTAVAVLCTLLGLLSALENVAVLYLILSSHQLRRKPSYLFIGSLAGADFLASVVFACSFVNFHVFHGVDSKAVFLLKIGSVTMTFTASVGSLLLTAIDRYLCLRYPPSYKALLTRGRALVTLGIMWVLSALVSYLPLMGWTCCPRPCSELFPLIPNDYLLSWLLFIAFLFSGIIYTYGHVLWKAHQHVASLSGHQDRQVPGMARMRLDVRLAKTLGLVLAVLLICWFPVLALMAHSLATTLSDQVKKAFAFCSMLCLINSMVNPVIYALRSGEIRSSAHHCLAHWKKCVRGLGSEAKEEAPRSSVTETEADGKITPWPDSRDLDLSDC

T1 sequence (P34972 whole entry): as above
T2 sequence (P20272 whole entry): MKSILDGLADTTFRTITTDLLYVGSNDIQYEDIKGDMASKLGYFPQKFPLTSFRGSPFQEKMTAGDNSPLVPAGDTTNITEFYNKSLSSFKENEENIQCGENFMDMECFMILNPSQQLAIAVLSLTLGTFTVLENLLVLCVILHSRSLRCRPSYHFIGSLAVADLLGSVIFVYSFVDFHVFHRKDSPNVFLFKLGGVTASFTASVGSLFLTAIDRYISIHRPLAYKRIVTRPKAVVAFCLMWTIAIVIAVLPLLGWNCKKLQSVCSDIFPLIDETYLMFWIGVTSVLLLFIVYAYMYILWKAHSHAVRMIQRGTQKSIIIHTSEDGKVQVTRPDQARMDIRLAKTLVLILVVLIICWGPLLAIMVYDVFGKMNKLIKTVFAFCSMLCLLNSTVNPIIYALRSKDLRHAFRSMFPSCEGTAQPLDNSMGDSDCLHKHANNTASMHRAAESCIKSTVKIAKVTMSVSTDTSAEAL

In the case of `CC[C@@H](C)Cc1cc(OC)c2c(c1)OC(C)(C)[C@@H]1CC=C(C)C[C@@H]21` [Compound 359, 1-Methoxy-3-(2′R-methylbutyl)-Δ^8-tetrahydrocannabinol], the Ki [1] is reported as 13.3 ± 0.15 nM, the “Fold selectivity for CB2 over CB1” value [1] is reported as 219 fold and the Ki (CB1 receptor) is reported as 2920 ± 450 nM.
For `CCC[C@H](C)Cc1ccc2c(c1)OC(C)(C)[C@@H]1CC=C(C)C[C@@H]21` [Compound 255, 1-Deoxy-3-(2′S-methylpentyl)-Δ^8-tetrahydrocannabinol], the Ki [1] was 24.3 ± 8.6 nM, the “Fold selectivity for CB2 over CB1” value [1] was 174 fold and the Ki (CB1 receptor) was 4310 ± 649 nM.
For `CCCCC(C)(C)c1cc(OC)c2c(c1)OC(C)(C)[C@@H]1CC[C@@H](O)C[C@@H]21` [Compound 299, 1-Deoxy-9β-hydroxy-1-methoxy-3-(1′,1′dimethylpentyl)-11-nor-hexahydrocannabinol], the Ki [1] was 29.8 ± 1.77 nM, the “Fold selectivity for CB2 over CB1” value [1] was 14 fold and the Ki (CB1 receptor) was 415 ± 49.8 nM.
In the case of `CCCCCC(C)(C)c1cc(OC)c2c(c1)OC(C)(C)[C@@H]1CC[C@@H](O)C[C@@H]21` [Compound 350, 9β-Hydroxy-1-methoxy-3-(1′,1′dimethylhexyl)-11-nor-hexahydrocannabinol], the “pain response (time spent licking injected paw)” value ([2]; 20 mg/kg i.p. 30 min before formalin, listed as JWH-350) is reported as “completely inhibited pain response; also recorded: completely eliminating the pain response”, the “nociception, dose dependence” value ([2]; i.p. 30 min before formalin) is reported as “inhibits nociception in a dose-dependent manner” and the Ki [1] is reported as 11.8 ± 1.03 nM. The “Fold selectivity for CB2 over CB1” value [1] was 33 fold and the Ki (CB1 receptor) was 395 ± 19.8 nM.
In the case of `CCCC(C)(C)c1ccc2c(c1)OC(C)(C)[C@@H]1CC[C@@H](O)C[C@@H]21` [Compound 310, 1-Deoxy-9β-hydroxy-3-(1′,1′dimethylbutyl)-11-nor-hexahydrocannabinol], the Ki [1] is reported as 36.1 ± 2.8 nM, the “Fold selectivity for CB2 over CB1” value [1] is reported as 29 fold and the Ki (CB1 receptor) is reported as 1060 nM.
For `CC[C@H](C)Cc1ccc2c(c1)OC(C)(C)[C@@H]1CC=C(C)C[C@@H]21` [Compound 352, 1-Deoxy-3-(2′S-methylbutyl)-Δ^8-tetrahydrocannabinol], the Ki [1] was 46.5 ± 2.16 nM, the “Fold selectivity for CB2 over CB1” value [1] was 213 fold and the Ki (CB1 receptor) was > 10000 nM.
For `CC[C@@H](C)Cc1ccc2c(c1)OC(C)(C)[C@@H]1CC=C(C)C[C@@H]21` [Compound 353, 1-Deoxy-3-(2′R-methylbutyl)-Δ^8-tetrahydrocannabinol], the Ki [1] was 31.3 ± 0.78 nM, the “Fold selectivity for CB2 over CB1” value [1] was 48 fold and the Ki (CB1 receptor) was 1493 ± 10 nM.
For `CCCCCCC(C)(C)c1ccc2c(c1)OC(C)(C)C1CC=C(C)CC21` (stereo not drawn) [1-deoxy-Δ^8-THC-DMH], the Ki (CB2 receptor) is listed as 3 nM.
In the case of `CCCCCC(C)(C)c1cc(OC)c2c(c1)OC(C)(C)[C@@H]1CC[C@H](O)C[C@@H]21` [Compound 349, 9α-Hydroxy-1-methoxy-3-(1′,1′dimethylhexyl)-11-nor-hexahydrocannabinol], the Ki [1] is reported as 38 ± 4.3 nM, the “Fold selectivity for CB2 over CB1” value [1] is reported as 10 fold and the Ki (CB1 receptor) is reported as 375.7 ± 0.7 nM.
